Experimental data: patent US4201784A, “Substituted 2-[2'-(5"-nitrofuryl-2")vinyl-and 4'-(5"-nitrofuryl-2"-1,3-butadieryl]quinoline-4-carboxylic acid amides and salts thereof” (Institut Organicheskogo Sinteza Akademii Nauk Latviiskoi SSR, priority 1977, dated 1980)
Like-named read-outs stand apart in the source and are kept apart here.

Tests used:
[1] = tested on: sarcoma AK; assay: Antitumor activity, sarcoma AK; assay type: in vivo, mice
Experimental: (§1) Apart from the tests on Ehrlich ascitic tumor, giniquine was studied on twelve more inoculated tumors. Seven tumors (melanoma B16, sarcoma AK, large intestine carcinoma acatol-1, sarcoma 180, adenocarcinoma 755, Lewis lung carcinoma and sarcoma 37) were inoculated subcutaneously with 50 mg of tumoral cells per mouse. Four tumors (lymphatic leukemies L 5178, L 5178Y, L 1210 and P-388) were inoculated intraperitoneally with 10^6 cells per mouse. One tumor (La, hemocytoblastosis) was inoculated intraperitoneally by injecting 50 mg of cell suspension of spleen and liver of mice suffering La hemocytoblastosis, per mouse. Giniquine was injected intraperitoneally five times for seven days: 1,2,3,4,7 days or 3,4,5,6,7 days after the implantation of tumor. The rate of deceleration of the tumor growth was established 14 days after the ultimate injection of giniquine; life of test animals was recorded for 60 days.

[2] = tested on: acatol-1; assay: Antitumor activity, large intestine adenocarcinoma acatol-1; assay type: in vivo, mice
Experimental: as §1

[3] = tested on: melanoma B16; assay: Antitumor activity, melanoma B16; assay type: in vivo, mice
Experimental: as §1, with “Giniquine was injected intraperitoneally five times for seven days: 1,2,3,4,7 days or 3,4,5,6,7 days after the implantation of tumor.” left out

[4] = tested on: Lewis lung carcinoma; assay: Antitumor / antimetastatic activity, Lewis lung carcinoma; assay type: in vivo, mice
Experimental: as §1

[5] = tested on: lymphatic leukemia P-388; assay: Antitumor activity, lymphatic leukemia P-388; assay type: in vivo, mice
Experimental: as §1

[6] = LD50 / toxicity, mice with 7-days Ehrlich ascitic tumor; assay type: in vivo; details: for LD50: mouse, in vivo
Text: It should be noted that with a single intraperitoneal injection of the
With peroral administration, toxicity of giniquine is 4-5 times lower.

[7] = tested on: Tumor cells (Ehrlich ascitic tumor); assay: In vivo biosynthesis of DNA, RNA and protein in tumor cells; design: species or system mice; details: for Incorporation of 2-^14 C-leucine in protein / Incorporation of 2-^14 C-thymidine in DNA: intraperitoneal 100 mg/kg; for inhibition at 100 mg/kg: Mus musculus, Ehrlich
Experimental: (§2) The influence of giniquine on biosynthetic processes in the in vivo tests was studied on common white mice of a mass of 25-35 g with Ehrlich ascitic tumor.
(§3) The mice were divided into two groups. The animals in the first group were given a single injection of the preparation in differing doses, and the animals in the second group were treated with distilled water. Three series of experiments were conducted. In the first series of tests (16 mice) the preparation was injected in a dose of 100 mg/kg ([…] dose), and the animals were decapitated one hour after the injection; in the second test series (16 mice) the animals were slaughtered 3 hours after the injection with other conditions being the same. In the third test series (35 mice) the influence of giniquine on plastic metabolism in tumor cells and normal tissues was studied 24 hours after the injection of a 0.33% solution of the preparation in a dose of 28 mg/kg (therapeutical dose).
(§4) Labeled precursors of nucleic acids and protein were injected intraperitoneally one hour before the slaughter of the animals (50 μc/100 g). Ascitic fluid, as well as liver and spleen, mucous membrane of small intestine, brain, kidneys and lungs were taken for analysis. 10% suspension was prepared from tumor cells, and 10% homogenates were prepared from tissues in a physiological solution.
Tumor cells and tissue homogenates for precipitation of nucleic acids were treated with 57% perchloric acid (10:1). Acid-soluble fraction was removed by washing the precipitate twice with 5 ml of 5% perchloic acid with subsequent centrifuging at 2000 g. Nucleic acids were hydrolyzed by the Schneider method. Radioactivity of DNA and RNA fractions was measured by means of a liquid scintillation counter. The quantity of DNA and RNA was determined by spectrophotometry: the quantity of DNA was determined with diphenylamine, and RNA- with orcin.
To prepare protein hydrolysate, the suspension of tumoral cells and homogenates of normal tissues were treated with cool 10% trichloracetic acid (1:4), with subsequent centrifuging at 2000 g for ten minutes. The precipitate was washed twice with 5 ml of 10% trichloracetic acid. Lipoids were removed by a consecutive treatment of the precipitate with ethanol, saturated solution of sodium acetate, a mixture of ethanol and ether (3:1) and ether. To prepare protein hyhdrolysate, 4 ml of 0.3N KOH were added to the precipitate, and the mixture was placed into a thermostatic chamber at 37° C. for 60 minutes. The radioactivity was measured by means of a liquid scintillation counter. Protein was quantitatively determined by spectrophotometry using a microbiuret reaction.

[8] = tested on: Mucous membrane of small intestine; assay: In vivo biosynthesis of DNA, RNA and protein in mucous membrane of small intestine; design: species or system mice; details: 24 hours, intraperitoneal 28 mg/kg
Experimental: as §2, §3, §4
(§5) Tumor cells and tissue homogenates for precipitation of nucleic acids were treated with 57% perchloric acid (10:1). […] Radioactivity of DNA and RNA fractions was measured by means of a liquid scintillation counter. The quantity of DNA and RNA was determined by spectrophotometry: the quantity of DNA was determined with diphenylamine, and RNA- with orcin.
(§6) To prepare protein hydrolysate, the suspension of tumoral cells and homogenates of normal tissues were treated with cool 10% trichloracetic acid (1:4), with subsequent centrifuging at 2000 g for ten minutes. […] The radioactivity was measured by means of a liquid scintillation counter. Protein was quantitatively determined by spectrophotometry using a microbiuret reaction.

[9] = tested on: Brain; assay: In vivo biosynthesis of DNA, RNA and protein in brain; design: species or system mice; details: 24 hours, intraperitoneal 28 mg/kg
Experimental: as §2, §3, §4, §5, §6

[10] = tested on: wound healing processes; assay: Influence on wound healing processes
[11] = tested on: tumor cells; assay: Antiblastic activity and selectivity of action on tumor cells (general statement)
[12] = BALB/c female mice, intraperitoneal, days 3,4,5,6,7, optim. daily dose 10.0 mg/kg
[13] = BDF1 male mice, intraperitoneal, days 1,2,5,6,7, optim. daily dose 17.0 mg/kg
[14] = 24 hours, intraperitoneal 28 mg/kg

For CCN(CC)CCCC(C)NC(=O)c1cc(C=Cc2ccc([N+](=O)[O-])o2)nc2ccccc12 (stereo not drawn) [giniquine, 2-[2'-(5"-nitrofuryl-2")vinyl]quinoline-4-carboxylic acid (α-methyl-δ-diethylaminobutyl)amide triphosphate], the “Deceleration of tumor growth” value ([1]; common female mice, intraperitoneal, days 3,4,5,6,7, optim. daily dose 2.2 mg/kg) was 46%, the “Max. prolongation of life” value ([1]; common female mice, intraperitoneal, days 3,4,5,6,7, optim. daily dose 10.0 mg/kg) was 15% and the “antitumor effect (in words)” value ([1]; sarcoma AK) was “slight antitumor effect”. The “Deceleration of tumor growth” value [2, 12] was 38%, the “Max. prolongation of life” value [2, 12] was 25% and the “antitumor effect / sensitivity (in words)” value ([2]; acatol-1) was “slight antitumor effect”. For the same compound, the “Deceleration of tumor growth” value [3, 13] was 48%, the “Max. prolongation of life” value [3, 13] was 10% and the “antitumor effect (in words)” value ([3]; melanoma B16) was “slight antitumor effect”. The Max. life prolong. ([4]; BDF1 female mice, intraperitoneal, days 1,2,3,4,7, optimum daily dose 6.0 mg/kg) was 15%, the “antimetastatic activity / sensitivity (in words)” value ([4]; Lewis lung carcinoma) was “practically insensitive” and the “sensitivity (in words)” value ([5]; P-388) was “practically insensitive”. The Max. life prolong. ([5]; printed B-388, BDF1 female mice, intraperitoneal, days 1,2,3,4,7, optimum daily dose 10.0 mg/kg) was 12%, the “dependence of mice sensitivity on sex” value ([6]; Table 4) was “does not depend on the sex of test mice” and the LD50 ([6]; ip, intraperitoneal, single injection, female) was 99 mg/kg. The LD50 ([6]; po, peroral, single administration, female) was 360 mg/kg, the LD50 ([6]; po, peroral, single administration, male) was 500 mg/kg and the “toxicity, times lower” value ([6]; peroral administration) was 4-5 times lower. The “toxicity, relative” value ([6]; single intraperitoneal injection, 7 days after implantation of Ehrlich ascitic tumor) was “three times lower”, the “Incorporation of 2-^14 C-leucine in protein” value ([7]; 1 h) was 59.0 % of control and the “Incorporation of 2-^14 C-thymidine in DNA” value ([7]; 1 h) was 43.0 % of control. For the same compound, the “Incorporation of 2-^14 C-leucine in protein” value ([7]; 3 h) was 14.0 % of control, the “Incorporation of 2-^14 C-thymidine in DNA” value ([7]; 3 h) was 30.0 % of control and the “suppression of incorporation of 2-^14 C-thymidine in DNA” value ([7]; 24 hours, 28 mg/kg) was 82%. The “suppression of incorporation of 2-^14 C-uridine in RNA” value ([7]; 24 hours, 28 mg/kg) was 42%, the “Incorporation of specific precursors, DNA” value [7, 14] was 18.0 % of control and the “Incorporation of specific precursors, Protein” value [7, 14] was 54.0 % of control. For the same compound, the “Incorporation of specific precursors, RNA” value [7, 14] was 58.0 % of control, the inhibition at 100 mg/kg ([7]; 1 h, one hour, 100 mg/kg, read-out: inhibition of biosynthesis of DNA) was 57% and the inhibition at 100 mg/kg ([7]; 3 h, three hours, 100 mg/kg, read-out: inhibition of biosynthesis of DNA) was 70%. The inhibition at 100 mg/kg ([7]; 3 h, three hours, 100 mg/kg, read-out: inhibition of biosynthesis of protein) was 86%, the “biosynthesis processes in tumor cells (in words)” value ([7]; in vivo) was “the same effect on biosynthesis processes in tumor cells” and the “suppression of biosynthesis of protein” value ([7]; one hour, 100 mg/kg) was 41%. For the same compound, the “Incorporation of specific precursors, DNA” value [8] was 386.0 % of control, the “Incorporation of specific precursors, Protein” value [8] was 122.0 % of control and the “Incorporation of specific precursors, RNA” value [8] was 158.0 % of control. The “Incorporation of specific precursors, DNA” value [9] was 125.0 % of control, the “Incorporation of specific precursors, Protein” value [9] was 105.0 % of control and the “Incorporation of specific precursors, RNA” value [9] was 124.0 % of control. For the same compound, the “inhibiting influence on wound healing processes” value [10] was “absence of an inhibiting influences on wound healing processes”, the “antiblastic / antitumoral activity” value [11] was “highly active antitumoral preparation” and the “selective (contact) action on tumor cells” value [11] was “selective action on tumor cells”.
